Holding throughout (assay type): in vivo, C57BL/6J mice
The subject of test [1] is mice loaded with a high-fat diet. Briefly: Random blood glucose level in mice loaded with high-fat diet. Conditions: 3 mg/kg/day in drinking water, 10 weeks, mean ± standard deviation, n = 9 to 10. Here is the method:
(§1) Male C57BL/6J mice (age of 8 weeks) were loaded with a high-fat diet, with the proportion of fat-derived calories over total calories (Fat Kcal %) of 60%. Herewith, insulin resistance, impaired glucose tolerance, and diabetes mellitus are developed. In a group of febuxostat treatment (Febuxostat group), febuxostat was dissolved in tap water at a dose of 3 mg/kg/day and was administered to the mice as daily drinking water at the same time of the initiation of loading with a high-fat diet. Mice in the Vehicle group were given tap water. Moreover, in the normal animal group, mice were reared with a regular diet and tap water in the same period as the Febuxostat group and the Vehicle group. Ten weeks after the start of the high-fat diet and the administration of febuxostat, an insulin tolerance test was carried out to assess random blood glucose levels and insulin resistance. More specifically, 1.5 U/kg of insulin was intraperitoneally administered to the mice and blood glucose levels were measured at 0 minute, 30 minutes, 60 minutes, 90 minutes, 120 minutes after the administration of insulin. […] Blood glucose levels were measured at 120 minutes after the administration of glucose. […]

The test system is the same in test [2]. As to the kind of experiment: Insulin tolerance test in mice loaded with high-fat diet. Conditions: 3 mg/kg/day in drinking water, 10 weeks. The method, then:
Male C57BL/6J mice (age of 8 weeks) were loaded with a high-fat diet, with the proportion of fat-derived calories over total calories (Fat Kcal %) of 60%. Herewith, insulin resistance, impaired glucose tolerance, and diabetes mellitus are developed. In a group of febuxostat treatment (Febuxostat group), febuxostat was dissolved in tap water at a dose of 3 mg/kg/day and was administered to the mice as daily drinking water at the same time of the initiation of loading with a high-fat diet. Mice in the Vehicle group were given tap water. Moreover, in the normal animal group, mice were reared with a regular diet and tap water in the same period as the Febuxostat group and the Vehicle group. Ten weeks after the start of the high-fat diet and the administration of febuxostat, an insulin tolerance test was carried out to assess random blood glucose levels and insulin resistance. More specifically, 1.5 U/kg of insulin was intraperitoneally administered to the mice and blood glucose levels were measured at 0 minute, 30 minutes, 60 minutes, 90 minutes, 120 minutes after the administration of insulin. Moreover, 12 weeks after the initiation of the high-fat diet and the administration of febuxostat, 0.5 g/kg of glucose was intraperitoneally administered to the mice starved for 4 hours to assess 2-hour blood glucose levels after glucose load. Blood glucose levels were measured at 120 minutes after the administration of glucose. Moreover, on the last day of the administration, blood sampling was carried out to measure blood uric acid levels.

The test system is the same in test [3]. As to the kind of experiment: Blood glucose levels 2 hours after glucose load in mice loaded with high-fat diet. Conditions: 0.5 g/kg glucose i.p. after 4 hours starvation, 3 mg/kg/day in drinking water, 12 weeks. Here is the method:
as §1

Test [4] shares this test system. Briefly: Blood uric acid levels in mice loaded with high-fat diet. Conditions: last day of administration, 3 mg/kg/day in drinking water. Here is the method:
as §1

For test [5] the test system is unchanged. Briefly: Glucose tolerance test in mice loaded with high-fat diet (Example 2). The note with it: 3 mg/kg/day in drinking water, 12 weeks. Here is the method: Male C57BL/6J mice (8 week-old) were loaded with a high-fat diet with the proportion of fat-derived calories over the total calories (Fat Kcal %) of 60%. Herewith, insulin resistance, impaired glucose tolerance, and diabetes mellitus are developed. At the same time of the initiation of loading high-fat diet, febuxostat dissolved in tap water at 3 mg/kg/day was administered to mice as drinking water in the Febuxostat group and mice in the Vehicle group were reared by administration of tap water as drinking water. Twelve weeks after the loading of a high-fat diet and the administration of febuxostat, a glucose tolerance test was carried out to assess impaired glucose tolerance. More specifically, the mice were made to fast for 4 hours; thereafter 0.5 g/kg of glucose was intraperitoneally administered to the mice. And blood sampling was conducted at 0 minute, 15 minutes, 30 minutes, 60 minutes, 90 minutes, and 120 minutes after glucose load respectively to measure glucose levels.

One molecule from patent US20150005506A1, “THERAPEUTIC AGENT FOR DIABETES” (Teijin Pharma Limited, priority 2012, published 2015) can be followed below.

With `Cc1nc(-c2ccc(OCC(C)C)c(C#N)c2)sc1C(=O)O` [Febuxostat, 2-(3-cyano-4-isobutyloxyphenyl)-4-methyl-5-thiazole carboxylic acid], the “Random blood glucose level” value in test [1] was 244 ± 7 mg/dL. In addition, the “Ratio of blood glucose levels relative to the value before insulin administration” value in test [2] (30 min after 1.5 U/kg insulin i.p.) is on record as 66 ± 4%; in test [2] (60 min after 1.5 U/kg insulin i.p.), 62 ± 3%; in test [2] (90 min after 1.5 U/kg insulin i.p.) it was 71 ± 4%; in test [2] (120 min after 1.5 U/kg insulin i.p.), 91 ± 5%. In addition, the “Blood glucose level AUC (0-2 hour)” value in test [2] (after 1.5 U/kg insulin i.p.) turned out to be 371 ± 17 mg·h/dL. Also, the “Blood glucose levels 2 hours after glucose load” value in test [3] turned out to be 396 ± 18 mg/dL. In addition, the “Blood uric acid levels” value in test [4] was 0.7 ± 0.1 mg/dL. Also, the Blood glucose levels in test [5] (0 min after 0.5 g/kg glucose i.p., n = 5 to 6) is recorded as 214 ± 17 mg/dL; in test [5] (15 min after 0.5 g/kg glucose i.p.), 368 ± 29 mg/dL; in test [5] (30 min after 0.5 g/kg glucose i.p.) it was 378 ± 26 mg/dL; in test [5] (60 min after 0.5 g/kg glucose i.p.) it was 349 ± 35 mg/dL; in test [5] (90 min after 0.5 g/kg glucose i.p.), 323 ± 43 mg/dL; in test [5] (120 min after 0.5 g/kg glucose i.p.) it was 279 ± 31 mg/dL.
